# Measurements from patent EP4748844A1, “AZETIDINE COMPOUND AND MEDICAL USE THEREOF” (SHANGHAI INSTITUTE OF MATERIA MEDICA, CHINESE ACADEMY OF …, priority 2023, dated 2025).
# Assays:
# [1] = system: STING agonist (MSA-2) stimulation; test: In vivo anti-inflammatory effect of oral administration on STING agonist (MSA-2) stimulation; set-up: species or system C57BL6 female mice; details: I-77 20mpk
# Experimental: 6-8 week C57BL6 female mice, purchased from Shanghai Jihui Experimental Animal Breeding Co., Ltd. Compound preparation method: 2 mg of I-77 powder was taken, 12 µL of PEG400 was added thereto and ultrasonically dissolved, and then 8 µL of Tween 80 was added and ultrasonically mixed to prepare a 100 mg/mL stock solution.
# Experimental grouping: The control group was administered vehicle solvent; The model group was administered MSA-2 (10mpk, dissolved in 40% PEG400); The treatment group (I-77) was administered MSA-2 and I-77 (20mpk, PO). A final concentration of […] of I-77 solution was prepared by dilution with double distilled water, and 200 µL of the solution was taken and administered intragastrically into the mice in treatment group; The control group and MSA-2 group were administered intragastrically with 200 µL of vehicle solvent diluted 10 times. […] After high-speed centrifugation of blood samples, the plasma was taken and diluted by 2 times, and the levels of CXCL10 and IL6 in the plasma were detected using the Lianke ELISA kit. RNA was extracted from heart and kidney samples, and reversed to cDNA, and inflammation related cytokines (ISG15, ISG56, IL6, and IP10) in tissues were detected using qPCR technology. […]
# [2] = system: ISG gene expression induced by MSA-2 in human THP1-Blue-ISG cells; test: Inhibition of MSA-2-induced ISG gene expression in human THP1-Blue-ISG cells (Quanti-Blue, OD650); format: cell-based; details: STING agonist MSA-2 10 µM, incubated for 24 hours
# Experimental: (§1) 10 µL of compound diluted with PBS/physiological saline was added to each well of a 96 well cell culture plate. The STING agonist was MSA-2, which was added to the counted cell suspension at a final concentration of 10 µM. For the control group without compounds, 10 µL of PBS/physiological saline containing 2% DMSO was added. 3 replicate wells were set in each group. THP1-Blue-ISG cells were counted and adjusted to a cell concentration of 4× 10^5/mL, and 190 µL of cells containing STING agonist were added to each well for incubation. Therefore, the final volume of each test well was 200 µL, the content of DMSO was 0.1%, and the final concentration of the compound tested was 10/3.3/1.1/0.4/0.13/0.04/0.013/0.004 µM, incubated for 24 hours. In addition, 190 µL of cells without STING agonist and 10 µL of physiological saline containing 2% DMSO were added to the blank group. 3 replicate wells were set in each group.
# After 24 hours, 20 µL of culture medium was taken from each well and transferred to a new 96 well plate. 180 µL of chromogenic solution Quanti-Blue was added. The plate was placed in a 37 °C incubator. After 2 hours, the OD650 values were measured.
# Result analysis: Inhibition rate (%) = (Con(OD650)−Treated(OD650))/Con(OD650) × 100% [formula]
# (§2) The IC50 calculation of inhibitors was implemented using the Graphpad Prism 8 software's calculation method log (inhibitor) vs. response - Variable slope (four parameters), with a constrain interval of 0-100.
# [3] = system: ISG gene expression induced by MSA-2 in human THP1-Dual cells; test: Inhibition of MSA-2-induced ISG gene expression in human THP1-Dual cells (QUANTI-Luc); format: cell-based; details: STING agonist MSA-2 10 µM, incubated for 24 hours
# Experimental: as §1, with “THP1-Dual” for “THP1-Blue-ISG”, “4×10^5/mL,” for “4× 10^5/mL,”
# After 24 hours, 20 µL of culture medium for THP1-Dual cells was taken from each well and transferred to a new 96 well plate with photopermeable bottom. 50 µL of the luciferase detection reagent QUANTI-Luc™ was added, and the […] was immediately measured (avoid light). Result analysis:Inhibition rate (%) = (Con(Lum)−Treated(Lum))/Con(Lum) × 100% [formula]
# as §2
# [4] = system: STING-V154M mutant autoimmune mouse disease model; test: Inflammatory inhibitory effect of oral administration in STING-V154M mutant autoimmune mouse disease model; format: in vivo; details: I-77 20mpk
# Experimental: The model mice were purchased from GEMPHARMATECH CO., LTD., and the wild-type C57/BL6 mice were also purchased from GEMPHARMATECH CO., LTD... Compound preparation method: 2 mg of I-77 powder was taken, 12 µL of PEG400 was added thereto and ultrasonically dissolved, and then 8 µL of Tween 80 was added and ultrasonically mixed to prepare a 100 mg/mL stock solution.
# Experimental grouping: Wild type mice control group (Control) was administered vehicle solvent; The model mice group (Model) was administered solvent; The treatment group (I-77) was administered I-77 (20mpk, PO) to the model mice. The mice in the I-77 treatment group were intragastrically administered 200 µL of I-77 solution at a final concentration of […] which was prepared by dilution with double-distilled water; The same dose of solvent was administered to the remaining groups until the mortality rate of the model group exceeded 50%. The kidneys and heart were collected from the experimental endpoint samples. RNA extraction was performed on heart and kidneys samples, and the RNA was reversed to cDNA. Changes in gene expression of inflammation related cytokines (ISG15, CCL5, IP10, ISG56) in the tissues were detected using qPCR technology. Statistical method: One way ANOVA, *P<0.05, **P<0.01, ***P<0.001, ***P<0.0001.
compound,measurement,setting,value
"CC1(C)C(=O)N(Cc2ccsc2)c2cc(C(=O)Nc3c[nH]c4ccccc34)ccc21 [Example I-77, N-(1H-indol-3-yl)-3,3-dimethyl-2-oxo-1-(thien-3-ylmethyl)indolin-6-carboxamide]",levels of IL6 and IP10 in plasma induced by MSA-2 injection,"[1]; 1 hour before MSA-2 (10mpk), plasma ELISA after 4 hours, Figure 4",significantly reduced
same,inflammatory response of the heart and kidneys induced by MSA-2 stimulation,"[1]; qPCR of ISG15, ISG56, IL6, IP10 in tissues, Figures 5, 6",inhibited the inflammatory response
same,IC50,[2],162 nM
same,IC50,[3],0.63 nM
same,cardiac and renal inflammatory responses of STING V154M mutant model mice,"[4]; qPCR of ISG15, CCL5, IP10, ISG56 in heart and kidneys, Figures 8, 9",inhibit the cardiac and renal inflammatory responses
same,survival of STING V154M mutant model mice,"[4]; until mortality of the model group exceeded 50%, Figure 7",significantly prolong the survival
